BigSolDB 2.1

CO/N=C(\C(=O)O)c1csc(N)n1
Conditions	solubility (mole fraction)
in ethanol, 283.12 K	6.9e-05
in ethanol, 288.42 K	8.31e-05
in ethanol, 293.23 K	0.000101
in ethanol, 298.17 K	0.000124
in ethanol, 303.33 K	0.000151
in ethylene glycol, 283.11 K	0.00129
in ethylene glycol, 288.68 K	0.00152
in ethylene glycol, 293.41 K	0.00175
in ethylene glycol, 298.26 K	0.002
in ethylene glycol, 303.46 K	0.0023
in methanol, 283.75 K	0.000293
in methanol, 288.17 K	0.000334
in methanol, 293.36 K	0.00038
in methanol, 298.26 K	0.00043
in methanol, 303.1 K	0.000489
in n-propanol, 282.85 K	2.14e-05
in n-propanol, 288.05 K	2.49e-05
in n-propanol, 293.09 K	3.1e-05
in n-propanol, 298.3 K	4.25e-05
in n-propanol, 303.08 K	5.94e-05
in water, 283.67 K	0.000356
in water, 288.48 K	0.000416
in water, 293.22 K	0.000483
in water, 298.36 K	0.000557
in water, 303.22 K	0.000637
